Measured values from a melting point compilation (Tetko et al.; mined from patent text by program, amines drawn as free bases though some values may be those of a salt).

`CC(C)c1cccc(C(C)C)c1N1C(=O)c2cccc3c(Oc4ccc(C(C)(C)CC(C)(C)C)cc4)ccc(c23)C1=O` gave a melting point of 217 °C. Molecule `CCCCCCCCOC(=O)Nc1c2c(nc3ccccc13)CCCC2` has a melting point of 96 to 99 °C. `COc1ccc(N2C(=O)O[C@H](COc3ccc(C#N)cc3)[C@@H]2C)cc1` showed a melting point of 127 to 128 °C. Work on `C=CCn1c(-c2cccnc2)nn(CN2CCN(c3cccc4c3OCCO4)CC2)c1=S` yielded a melting point of 122 to 127 °C. `Cc1cc(C)cc(Oc2c(CO)c(C)[nH]c(=O)c2I)c1` showed a melting point of 248 to 250 °C. With `CCOC(=O)c1ccc(-c2csc(-c3ccc(Cl)cc3)n2)s1` the melting point was 234 to 236 °C. Molecule `CCc1c(OC)nc2nc(C#N)cn2c1C` has a melting point of 166 to 168 °C. `CC(C)(C)OC(=O)NCC(=O)OCCCNc1cccc2c1C(=O)c1ccccc1C2=O` gave a melting point of 84 °C. Work on `O=C(C=Cc1cccnc1)NCCCCC1CCN(C(=O)c2cccc3c2-c2ccccc2C3=O)CC1` yielded a melting point of 80 to 82 °C. `COc1ccc(Nc2ccc(Nc3ncnc4cc(-c5cccs5)sc34)cc2)cc1` gave a melting point of 231 to 240 °C. `O=C1COc2cc(Br)c(F)cc2N1` showed a melting point of 244 °C. With `O=C(Nc1ccc2[nH]nc(C#Cc3ccccc3)c2c1)N[C@@H](c1ccc(Cl)c(Cl)c1)[C@@H]1CCCCN1` the melting point was 160 °C. Molecule `Nc1cccnc1Cc1ccccc1` has a melting point of 84 to 86 °C. Work on `CCCCCCCCCCS(=O)(=O)CCCOCCn1c(CCC)nc2c(N)nc3ccccc3c21` yielded a melting point of 84 to 86 °C. With `O=C(O)Cc1cccc(Oc2ccccc2O)c1O` the melting point was 91 to 93 °C. Work on `CCOC(=O)NC(C)=N` yielded a melting point of 111 to 114 °C. With `CC(=O)c1ccc(Nc2c(C(=O)NOCCO)ccc(F)c2F)c(Cl)c1` the melting point was 162 °C. `COC(=O)c1ccc(C(O)=CC(=O)c2cc([Si](C)(C)C)ccc2O)cc1` showed a melting point of 130 to 131 °C. Work on `CCOC(=O)OCSCC1=C(C(=O)OCC)C(c2cccc([N+](=O)[O-])c2)C(C(=O)OCC)=C(C)N1` (centres undefined) yielded a melting point of 83 to 85 °C. With `CCOC(=O)Oc1cc2occ(C(=O)Cl)c(=O)c2cc1OC(=O)OCC` the melting point was 89 to 92 °C. `CCCc1nn(C)c2c(OCCOc3ccc(CC(OCC)C(=O)O)cc3)nc(CC)nc12` (centres undefined) gave a melting point of 140 to 142 °C. With `CCOC=Cc1c(OC)c(=O)[nH]c2cc(Cl)ccc2c1=O` the melting point was 202 to 204 °C. `CNC(=O)OCc1nc(C(C)C)c(Sc2cc(Cl)cc(Cl)c2)n1C` gave a melting point of 112 to 113 °C. For `Clc1ccc2c(c1)C(Cl)c1ccccc1CO2` (centres undefined), the melting point was 125 to 127 °C. With `CCC(=O)OCC1OC(n2cnc3c(=O)[nH]c(N)nc32)C(F)C1OC(=O)CC` (centres undefined) the melting point was 198 to 200 °C. Work on `CN(Cc1ccc(S(C)=O)s1)C(=O)C12CC3CC(CC(C3)C1)C2` (centres undefined) yielded a melting point of 91.5 to 93.5 °C. Molecule `COC(=O)c1nc(-c2nccs2)cc(NC(C)=O)c1Cl` has a melting point of 187 to 188 °C. Work on `Fc1ccc(-n2ncc3c2-c2ccccc2C3)cc1` yielded a melting point of 104 to 105 °C. In the case of `Cc1cccc(P(c2cccs2)c2cccs2)c1-c1c(C)cccc1P(c1cccs1)c1cccs1`, the melting point is reported as 177 to 178 °C. Work on `O=C(Cl)c1cc(Cl)c(Cl)c(Cl)n1` yielded a melting point of 60 to 62 °C. With `CS(=O)(=O)c1ccc(-n2nc(C(F)(F)F)nc2-c2ccc(Br)cc2)cn1` the melting point was 141 to 143 °C. For `O=C(NC1CN(Cc2ccccc2)CCN(Cc2ccccc2)C1)c1n[nH]c2ccccc12`, the melting point was 115 to 116 °C. In the case of `CSCCO[C@@H]1c2ccn3c(C)c(C)nc3c2N[C@H](c2ccccc2)[C@H]1O`, the melting point is reported as 118 to 119 °C. Work on `COc1cc2c(c3c1OC(C)(C)C3)C(c1cccc(NC(=O)CCCCl)c1)=NC(C)(C)C2` yielded a melting point of 146 to 148 °C. In the case of `CC(C)[C@H](NC(=O)N(C)Cc1ccccn1)C(=O)N[C@@H](Cc1ccccc1)[C@@H](O)C[C@H](Cc1ccccc1)NC(=O)OC(C)(C)C`, the melting point is reported as 84 to 85 °C. For `O=C(NC1(C(=O)O)CCCC1)OCc1ccccc1`, the melting point was 70 to 80 °C. `Cc1ccc(N)cc1/C=C/c1nc(C(C)C)cs1` showed a melting point of 60 to 61 °C. For `COc1ccc(-c2c(Cl)c(CN3C(=O)CCC3=O)nc3sc4c(F)c(O)ccc4c23)cc1`, the melting point was 294 to 295 °C. `O=C(O)COCC(=O)NC12CC3CC(CC(C3)C1)C2` gave a melting point of 181 to 183 °C. `CCCC(NS(C)(=O)=O)P(=O)(OCCCl)OCCCl` (centres undefined) showed a melting point of 69 to 72 °C. Work on `Cc1c(Nc2ccc(Cl)cc2C(=O)O)cccc1C(F)(F)F` yielded a melting point of 220 to 222 °C. `C=CCn1c(=O)c2[nH]c(C34CC5CC(CC3C5)C4)nc2n(CCC)c1=O` showed a melting point of 191 to 192 °C. `COc1ccccc1S(=O)(=O)N(C)c1cccc2cc(C3=NCC(CC(=O)O)S3)[nH]c12` (centres undefined) gave a melting point of 197 to 198 °C. Molecule `Cc1cc(C(=O)CC(=O)C(F)(F)F)c(F)cc1Cl` has a melting point of 59 to 60 °C. Work on `C#CCOCc1c(C)nc2c(OCc3ccccc3Cl)cccn12` yielded a melting point of 95 to 95.5 °C. With `Cc1sc2c(Br)c3ccccc3c(C3=CC(Br)([N+](=O)[O-])C(OC(Cc4ccccc4)C(=O)O)C=C3)c2c1C` (centres undefined) the melting point was 243 to 245 °C. For `CC1=C(C(=O)OCc2ccccc2)C(c2cccc([N+](=O)[O-])c2)c2c(ccnc2OC(C)C)N1` (centres undefined), the melting point was 158 to 160 °C. Work on `CCCNC(=O)[C@H]1CN(c2ccc(N3CCOCC3)c(F)c2)C(=O)O1` yielded a melting point of 165 to 167 °C. Molecule `CCCCOC(=O)NS(=O)(=O)CCc1c(C)nn(C)c1-n1ccc2cc(C(F)(F)F)cnc21` has a melting point of 122 to 123 °C. For `CC(C)(C)NC(=O)N1CCn2c(C#N)c(-c3cccc(F)c3)c(C(N)=O)c2C1`, the melting point was greater than 217 °C. `Cc1noc(NS(=O)(=O)c2ccsc2C(=O)Nc2ccccc2)c1Br` gave a melting point of 168 to 170 °C. With `C/C(=C\c1ccc(C(=O)O)cc1)c1ccc2c(c1)C(C)(C)CCS2(=O)=O` the melting point was 245 to 247 °C. With `COc1nc(NC(=O)NS(=O)(=O)c2cccc3cccnc23)nc(OC)n1` the melting point was 151 to 153 °C. Work on `CCCCCCCCCCCCCCCCCC(=O)Nc1cccc([N+](=O)[O-])c1` yielded a melting point of 75 to 76 °C. `COc1ccc2nc3ccc(OC)cc3c(C(=O)Oc3c(Br)cccc3Br)c2c1` gave a melting point of 245 to 247 °C. Work on `CCOP(=O)(OCC)C1(P(=O)(OCC)OCC)CC(C(=O)CC)=NN1` yielded a melting point of 96 to 98 °C. Work on `CN(C)S(=O)(=O)c1cccc2c1Sc1ccc(OCc3ccccc3)cc1N2CCCCl` yielded a melting point of 124 to 126 °C. Work on `O=C1CCN(c2cc3c(cc2-c2ccc(F)cc2)NC(=O)CC(c2cccc(-n4ccnc4)c2)=N3)CC1` yielded a melting point of 204 °C. Molecule `O=c1[nH]c2ccccc2n1C1CCN(CC(O)COc2ccc(F)cc2)CC1` (centres undefined) has a melting point of 175 to 176 °C. For `CC1(c2ccccc2)Cc2cc(O)c(Cl)c(Cl)c2C1O` (centres undefined), the melting point was 163 to 165 °C. Work on `COCc1cc2ccccc2c(Oc2ccc(/C=C/C(=O)O)cc2)c1-c1ccccc1` yielded a melting point of 76 to 79 °C. With `FC(F)(F)c1cc(Br)c2nc(N3CCN(c4ncc(Cl)cc4Cl)CC3)[nH]c2c1` the melting point was 176 to 179 °C. `C=C1C(=O)N[C@@H](Cc2ccccc2)C(=O)N1Cc1ccccc1` gave a melting point of 124 to 127 °C. Molecule `CC(C)C[C@H](NC(=O)CCSC(=O)c1ccccc1)C(=O)O` has a melting point of 99 to 101 °C. Work on `CC(=O)Oc1ccc(C(=O)O)cc1-c1ccccc1` yielded a melting point of 185 to 187 °C. With `O=Cc1nn(-c2ccc(Cl)cc2)c2c1CCCC2` the melting point was 117 to 118 °C. Molecule `Clc1ncnc2ccoc12` has a melting point of 122 °C. With `COc1cc(N(C(C)=O)c2c(C#N)cnc3ccsc23)c(Cl)cc1Cl` the melting point was 202 to 204 °C. With `CCN1c2ccccc2N(C)C(=O)c2cccnc21` the melting point was 106 to 111 °C. In the case of `CCOC(=O)CC(=O)C=Cc1cccc([N+](=O)[O-])c1`, the melting point is reported as 92 to 93 °C. `CCOC(=O)C1=C(COCc2nnnn2CC(N)=O)NC(C)=C(C(=O)OC)C1c1ccccc1Cl` (centres undefined) gave a melting point of 97 to 100 °C. Work on `CCC(CC)(CO)NC(N)=S` yielded a melting point of 148 to 151 °C. Molecule `Cc1cccc(C)c1N(CCCC(=O)N[C@@H](CO)C(=O)O)C(=O)c1ccc(Cl)cc1` has a melting point of 147 to 148 °C. For `COC1(c2ccc(C(C)(C)C)cc2)CC1C(=O)N[C@H](C)c1ccc(NS(C)(=O)=O)c(C)c1` (some centres undefined), the melting point was 231 °C. With `Cn1ncc(Cl)c(NCCCCl)c1=O` the melting point was 42 to 46 °C. Molecule `O=C(CN1c2nc(-c3ccncn3)cc(=O)n2CCC12CCN(C(=O)c1cccc(F)c1)C2)c1ccccc1` (centres undefined) has a melting point of 267 to 268 °C. Molecule `COc1cc2c(cc1OC)C(C=Cc1ccccc1)=NN(C(C)=O)C(C)C2` (centres undefined) has a melting point of 118 to 120 °C. `CC(C)c1ccc(OC(Cc2ccc(OCCNC(=O)c3ccc(-c4ccc(F)cc4)cc3)cc2)C(=O)O)cc1` (centres undefined) gave a melting point of 192 to 193 °C. For `COc1ccc2[nH]c(C(=O)c3ccc(F)cc3)cc2c1`, the melting point was 167 to 169 °C. In the case of `CCOC(=O)c1cn(C)c2nn(C)cc2c1=O`, the melting point is reported as 235 to 240 °C. Molecule `CN(C(CCn1c(=O)cc(Cl)[nH]c1=O)C(=O)NO)S(=O)(=O)c1ccc(Oc2cccc(F)c2)cc1` (centres undefined) has a melting point of 147 to 148 °C. With `CCOC(=O)C(=CNC1CC1)C(=O)c1c(F)cc(F)c(F)c1C` the melting point was 69 to 72 °C. Work on `O=C1c2ccccc2C(=O)N1C[C@@H](O)COc1ccc(Cl)cc1O` yielded a melting point of 214 to 218 °C. With `CC(O)c1nc2c(OCc3ccccc3)cccc2n1C` (centres undefined) the melting point was 148 to 150 °C. `CCOC(=O)c1[nH]nc(-c2ccc(C#N)cc2)c1C` gave a melting point of 148 °C. With `CCCCCS(=O)(=O)NC(=O)/C=C/c1ccc(OCC2CCCO2)cc1Oc1ncc(C(F)(F)F)cc1Cl` (centres undefined) the melting point was 126 to 128 °C. `COC(=O)c1ccc(CCCOCCCCCNCC(O)c2cc(Cl)c(N)c(Cl)c2)o1` (centres undefined) showed a melting point of 58 to 59 °C. Work on `O=C(O)CCC(O)c1ccc(-c2ccccc2F)cc1` (centres undefined) yielded a melting point of 174 to 175 °C. `N#CN=C(Nc1ccc(C#N)cc1O)Nc1cccc(Cl)c1Cl` gave a melting point of 155 to 156 °C. Molecule `O=C1NC(=O)C(Cc2ccc3cc(OCc4ccccc4)ccc3n2)S1` (centres undefined) has a melting point of 144 to 146 °C. `CCOC(=O)C(=O)c1ccc(OC)s1` showed a melting point of 136 to 137 °C. In the case of `CCCCCCCCCCCCCCCCCCOc1cn(C)c(CNCCCO)cc1=O`, the melting point is reported as 79 to 82 °C. Molecule `CCCCNc1cc(CNCc2cccc(O)c2)cc(S(N)(=O)=O)c1Oc1ccccc1` has a melting point of 174 to 175 °C. For `CCc1nc(CCc2cccc(N)c2)sc1C`, the melting point was 64 to 65 °C. With `CC(C)n1nc(-c2cc(-c3ncnn3C)c(N)nc2-c2ccccc2)ccc1=O` the melting point was 253 to 254 °C. Work on `COCCN1CCN(CCCOc2ccc3nc(C#N)nc(NCC(C)(C)C)c3c2)CC1` yielded a melting point of 92 to 94 °C. Molecule `CCCN1CCc2c(c(Br)cc([N+](=O)[O-])c2NC(C)=O)C1` has a melting point of 166 to 167 °C. With `CC(=N)NS(=O)(=O)C=Cc1ccc(Cl)cc1` the melting point was 161 to 163 °C. `CSc1ncc(CCN2CCC(C3(c4ccc(F)cc4)OCCO3)CC2)c(O)n1` gave a melting point of 206 °C.
